According to patent publication US8163709B2, “TAK1-D mediated induction of cell death in human cancer cells by specific sequence short double-stranded RNAS” (Board of Regents of the University of Texas System, priority 2008, dated 2012):
Entries after “also recorded” stand apart in the source; their conditions may differ.

Columns and labels:
H460 cells [1] = assay: Protein synthesis by [35S] methionine incorporation in H460 cells; format: cell-based, human; conditions: for protein synthesis by [35S] methionine incorporation: 4 h
Protocol: On the next day cells were incubated with the dsRNAs for the given amount of time. Ten minutes prior to labeling the cell culture medium was replaced with cystein/methionine free RPMI. Thereafter, cells were incubated for 15 minutes in cystein/methionine free RPMI containing 40 μC/ml [^35S] methionine (Perkin Elmer, Waltham, Mass., USA).
In order to measure the incorporated radionuclide, cells were washed 5 times with 5% TCA, once with 70% ethanol and the proteins were solubilized in SDS-PAGE sample buffer. After addition of the samples to a liquid scintillation cocktail, [^35S] activity was determined in a LS6500 scintillation counter (Beckmann).
For SDS-PAGE cells were washed 3 times with PBS and proteins were solubilized by heating in non reducing sample buffer. After determination of the protein concentration (D protein assay, Bio-Rad, Hercules, Calif., USA) samples were reduced by the addition of DTT to a final concentration of 100 mM and separated in a 4-12% Bis-Tris gradient gel (NuPAGE, Invitrogen). The gel was dried after Coomassie blue staining and autoradiography was performed using a phosphoimager (Typhoon 9410, Amerham).

TAK1-D = biological target: T1, TAK1-D (Homo sapiens, UniProt O43318); assay: TAK1-D autophosphorylation on T184/T187 in H460 cells (Western blot, phospho-specific antibody); format: cell-based; design: endogenous in cells; host or cells: NCI-H460; conditions: for activating autophosphorylation (activation) of TAK1-D on T184 and T187: H460 cells, RNA transfected (20 nM), Western blot
T1 sequence (O43318 1-491 isoform O43318-4): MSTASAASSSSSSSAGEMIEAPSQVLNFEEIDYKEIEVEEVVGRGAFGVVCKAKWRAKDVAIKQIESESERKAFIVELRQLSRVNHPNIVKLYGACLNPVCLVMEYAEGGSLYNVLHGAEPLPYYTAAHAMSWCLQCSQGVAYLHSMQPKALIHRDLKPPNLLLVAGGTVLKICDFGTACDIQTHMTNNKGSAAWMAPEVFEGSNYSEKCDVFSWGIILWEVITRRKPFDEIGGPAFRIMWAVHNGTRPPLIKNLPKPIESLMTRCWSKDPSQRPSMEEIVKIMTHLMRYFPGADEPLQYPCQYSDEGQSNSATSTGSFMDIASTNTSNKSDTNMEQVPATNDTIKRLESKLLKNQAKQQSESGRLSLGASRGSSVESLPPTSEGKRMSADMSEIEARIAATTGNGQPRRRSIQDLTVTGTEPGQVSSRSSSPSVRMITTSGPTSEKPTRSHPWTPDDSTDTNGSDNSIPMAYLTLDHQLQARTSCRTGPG
Protocol: In an effort to identify the MAPKKK responsible for the activation of the p38 MAP kinase and SAPK/JNK pathway, several of these kinases were screened for siRNA si5 mediated activation.
Immunoblot analysis. Western blotting was performed exactly as described previously (Kodym et al., 2008b). In addition to the primary antibodies previously mentioned (Kodym et al., 2008b) the following antibodies were used: S6 ribosomal protein (Cell Signaling #2217), DPM1 (Santa Cruz #sc-15836, Santa Cruz, Calif., USA), and Histone H3 (Cell Signaling #9715).

H460 cells [2] = assay: Survival assay of H460 cells, Crystal Violet staining
TAK1-D/TAB1 complex = biological target: T2, TAK1-D/TAB1 complex (Homo sapiens, UniProt O43318); assay: In vitro kinase assay with purified FLAG-TAK1-D/His-TAB1; format: biochemical; conditions: purified proteins, cell-free
T2 construct: made in house; host or cells: HeLa cells
T2 sequence (O43318 1-491 isoform O43318-4): T1 sequence (O43318 1-491 isoform O43318-4)
T2 sequence (Q15750 1-504 partner): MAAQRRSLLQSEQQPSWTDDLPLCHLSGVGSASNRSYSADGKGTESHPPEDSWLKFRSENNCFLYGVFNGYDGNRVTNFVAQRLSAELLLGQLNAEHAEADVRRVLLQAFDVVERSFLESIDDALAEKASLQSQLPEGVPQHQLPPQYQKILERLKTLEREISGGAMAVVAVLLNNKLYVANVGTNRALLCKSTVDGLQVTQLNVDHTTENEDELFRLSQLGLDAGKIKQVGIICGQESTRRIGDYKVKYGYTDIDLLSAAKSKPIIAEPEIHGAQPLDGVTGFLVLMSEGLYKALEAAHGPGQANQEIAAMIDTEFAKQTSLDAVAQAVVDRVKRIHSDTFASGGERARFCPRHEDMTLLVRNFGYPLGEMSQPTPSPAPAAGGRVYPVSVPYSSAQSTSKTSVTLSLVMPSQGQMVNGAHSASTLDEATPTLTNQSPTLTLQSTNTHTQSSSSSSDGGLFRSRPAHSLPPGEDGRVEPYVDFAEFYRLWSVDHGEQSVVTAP
Source text: FIGS. 2A-C: Effect of dsRNAs on the activity of purified recombinant TAK1-D protein. (FIG. 2A) In vitro kinase assay showing the activation of TAK1-D autophosphorylation by siRNA si5. FLAG-tagged TAK1-D and His-tagged TAB1 were coexpressed in Hela cells and purified by immunoprecipitation with anti FLAG antibody. […] Error bars indicate the standard error of 3 experiments.
To verify if siRNA si5 indeed interacts with TAK1-D directly, the activation of the kinase was studied in vitro using purified proteins. […] To test whether the increased activation of the TAK1-D/TAB1 complex by siRNA si5 is caused by an increased affinity of the RNA molecule to the kinase, binding of radiolabeled siRNAs to immunoprecipitated FLAG tagged TAK1-D was measured. In FIG. 2C the amount of RNA bound to immobilized FLAG-TAK1-D is given.
FLAG-tagged TAK1-D and HIS-tagged TAB1 were co-expressed in HeLa cells and the proteins were purified through immunoprecipitation with an anti-FLAG antibody.

NF-κB = NF-κB activation in H460 cells (EMSA, IKKα/β phosphorylation); format: cell-based, human; conditions: hours after transfection (3 h, 6 h)
Protocol: EMSA. Electrophoretic mobility shift assays for NFκB were performed as described previously (Kurland et al., 2001) using 3.5 μg of nuclear protein for each reaction.
FIG. 16B illustrates the effect of dominant-negative TAK1-D/K63W on dsRNA si5 induced cell death. […] As a slight growth inhibition of si5 transfected H460-K63W cells can be observed in FIG. 16B it is interesting to ask whether this is caused by an incomplete suppression of TAK1-D activity or by activation of other dsRNA-dependent stress pathways. To answer this question, the activation of the transcription factor NF-κB by dsRNA si5 was tested, as it well established that dsRNA triggered activation of PKR (Zamanian-Daryoush et al., 2000), TLR3 (Jiang et al., 2003), and RIG1/Mda-5 (Hiscott et al., 2006) leads to a downstream activation of NF-κB.

| Substance | inhibition of translation (H460 cells [1]; H460, SDS-PAGE autoradiography) | [35S] methionine incorporation (H460 cells [1]; H460, scintillation counting) | activating autophosphorylation (activation) of TAK1-D on T184 and T187 (TAK1-D) | cell death, crystal violet (H460 cells [2]; H460, 48 hours after transfection, shRNA experiment) | toxicity, crystal violet (H460 cells [2]; H460-wt, H460-vec, H460-K63W, 48 h) | autophosphorylation activity of the TAK1-D/TAB1 complex (TAK1-D/TAB1 complex) | activation of NF-κB (EMSA of nuclear protein) (NF-κB) | [35S] methionine incorporation, of its initial value (H460 cells [1]; H460, after 4 hours, scintillation counting) | time until [35S] methionine incorporation significantly reduced (H460 cells [1]; H460, after transfection) | [35S] methionine incorporation, of initial value (H460 cells [1]; H460, within first 4 hours, SDS-PAGE autoradiography) | protein synthesis by [35S] methionine incorporation (H460 cells [1]; TAK1-D/K63W transfected H460, 10 nM) | protein synthesis by [35S] methionine incorporation (H460 cells [1]; wild-type and vector transfected H460, 10 nM) | autophosphorylation signal of Tak1-D six hours after addition (TAK1-D; NCI-H460 cells, 6 h) | effect on cells, Crystal Violet (H460 cells [2]; H460, 5 nM, 48 h) | effect on cells, Crystal Violet (H460 cells [2]; H460, 10 nM to 20 nM, 48 h) | cell death, crystal violet (H460 cells [2]; H460-wt and H460-vec, 5 or 10 nM, 48 h) | cell death, crystal violet (H460 cells [2]; TAK1-D/K63W transfected H460, 5 or 10 nM, 48 h) |
| --- | --- | --- | --- | --- | --- | --- | --- | --- | --- | --- | --- | --- | --- | --- | --- | --- | --- |
| si6: control 21-mer siRNA against TLK1 mRNA: GGGUGGAAAUGGCUCAAGUtt (SEQ ID NO: 4) / gtCCCACCUUUACCGAGUUCA (SEQ ID NO: 5) (sense GGGUGGAAAUGGCUCAAGUTT; antisense GTCCCACCUUUACCGAGUUCA; chemistry not given here; one strand is listed 3' to 5') [reference compound] | No inhibition of translation was observed | remained unchanged | not triggered | no cell death or growth inhibition could be observed | no significant toxicity can be observed | not | neither si5 nor si6 transfection lead to an activation |  |  |  |  |  |  |  |  |  |  |
| si5: 21-mer siRNA against TLK1 mRNA: GGCUUUUGACCUUUAUGAAtt (SEQ ID NO: 2) / ttCCGAAAACUGGAAAUACUU (SEQ ID NO: 3) (sense GGCUUUUGACCUUUAUGAATT; antisense TTCCGAAAACUGGAAAUACUU; chemistry not given here; one strand is listed 3' to 5') |  |  | a si5 induced signal was detected; also recorded: able to activate Tak1-D; also recorded: leads to phosphorylation of TAK1-D |  |  | increase in autophosphorylation activity; also recorded: increased the autophosphorylation activity | neither si5 nor si6 transfection lead to an activation; also recorded: does not activate NF-κB | about 60% | ≤ 1 h | about 50% | could not be observed; also recorded: no change in protein synthesis can be detected | significant reduction in mRNA translation; also recorded: drops significantly | significantly stronger autophosphorylation signal | slight growth retardation | significant cell kill | massive cell death | survive the treatment and not |
